# Source: publication PMC13355314, “Charged molecular glue discovery enabled by targeted degron display” (Nature Chemical Biology, 2026)
# Values joined by “and” are separate entries in the source; they are usually repeats but may differ in a detail not shown here. Equal values may be shown once. “Also recorded” adds a separate entry of the source.
# Experiments:
# GSH chemical stability = format: physicochemical; details: for half-life: GSH chemical stability; for remaining at 5 min / remaining at […] / remaining at 0.5 h / remaining at 1 h / remaining at 2 h: GSH; for remaining at […]: 15 min; for remaining at 0.5 h: 30 min; for remaining at 1 h: 60 min; for remaining at 2 h: 120 min
# Description: Afatinib Time Peak Area %Remaining Ln T1/2
# (Ctrl) (min) Ratio (%remaining) (min)
# (min) Ratio (%remaining) (min)
# [1] = system: ternary complex of *BRD4BD1, ZZ1-SO2H and YPEL5-WDR26; experiment: Competitive FP disrupting the ternary complex; format: binding, human
# Description: The four-parameter [inhibitor] versus response model was applied to estimate the IC50.
# Microsome stability, MLM = format: in vitro ADME; details: mouse, liver microsomes; for half-life: read-out: MLM Stability (T1/2 min)
# Microsome stability, HLM = format: in vitro ADME; details: human, liver microsomes; for half-life: read-out: HLM Stability (T1/2 min)
# BRD4 = molecular target: T1, BRD4 (Homo sapiens, UniProt O60885); experiment: HiBiT–BRD4 assay (endogenous BRD4 protein levels); format: cell-based
# T1 construct: Endogenous BRD4 protein levels were evaluated using the Nano-Glo HiBiT lytic detection system; endogenous in cells; host or cells: Jurkat (HiBiT knock-in; some series in YPEL5-/- cells re-expressing WT or mutant YPEL5-FLAG)
# Description: Introduction of a HiBiT coding sequence into the endogenous BRD4 locus in Jurkat cells was achieved using CRISPR–Cas9 genome editing. Alt-R CRISPR RNA (crRNA) and trans-activating crRNA (tracrRNA) (Integrated DNA Technologies) were resuspended in nuclease-free duplex buffer (Integrated DNA Technologies) at a concentration of 200 µM each. Equal volumes of crRNA and tracrRNA were mixed (final concentration of 100 µM each) and heated for 5 min at 95 °C. After heating, the complex was gradually cooled to room temperature. The oligo complex was then incubated at room temperature for 20 min with the Alt-R Cas9 nuclease V3 (Integrated DNA Technologies) to form the ribonucleoprotein (RNP) complex. The double-stranded DNA homology-directed repair (HDR) template (HiBiT–BRD4 with extensions, shown below), the RNP complex and an electroporation enhancer (Integrated DNA Technologies) were then electroporated into Jurkat cells using an Amaxa 4D-Nucleofector (Lonza). Electroporated cells were transferred to medium with HRD enhancer (Integrated DNA Technologies). Single cells were subsequently isolated by fluorescence-activated cell sorting and HiBiT expression from individual clones was detected with the Nano-Glo HiBiT lytic detection system (Promega). Sequences for the crRNA and HDR donor are provided below.
# Endogenous BRD4 protein levels were evaluated using the Nano-Glo HiBiT lytic detection system (Promega). In brief, 1.5 × 10^4 HiBiT–BRD4 Jurkat cells were seeded into 384-well plates and incubated with the indicated concentrations of compounds. After 5 h, the plates were subjected to a Nano-Glo HiBiT lytic detection system as described in the manufacturer’s manual. The HiBiT–BRD4 assays were conducted in biological triplicates.
# [2] = molecular target: T2, FAM–BRD4BD1 + YPEL5–WDR26 module (Homo sapiens, UniProt O60885+P62699); experiment: FP assay quantifying ternary complex formation; details: *BRD4BD1 binding to YPEL5–WDR26 upon degrader titration
# T2 construct: fluorescent BRD4 bromodomain substrates, either in isolation (BRD4BD1 and BRD4BD2) or in tandem (BRD4BD1+BD2); GST (N, cleaved yes); made in house; host or cells: BRD4BD1: E. coli BL21 (DE3) RIL; YPEL5–WDR26ΔCTLH: Trichoplusia ni High Five insect cells
# Description: The potency of the degraders was expressed as the EC50 estimated by nonlinear regression using a four-parameter [agonist] versus response model.
# YPEL5 = molecular target: T3, YPEL5 (Homo sapiens, UniProt P62699); experiment: Octet BLI, binary affinity of degrader for YPEL5 (no BRD4BD1); format: binding; details: absence of BRD4BD1
# T3 construct: made in house; host or cells: Trichoplusia ni High Five insect cells
# Description: To quantify interactions between the degrader-bound neosubstrates and the CTLH E3 neosubstrate receptor module, we determined the KD using Octet BLI.
# For each measurement, one of the loaded sensors was dipped in the reference solution containing 0 or 5 μM degrader in the BLI binding buffer (in the absence of the analyte protein). The reference response values were subtracted from the responses elicited by all the neosubstrate-containing solutions before data analysis. All BLI experiments were carried out at 20 °C using the eight-channel Octet R8 system (Sartorius). Concentrated proteins and compounds were diluted in the BLI binding buffer composed of 25 mM HEPES pH 7.5, 150 mM NaCl, 1 mM DTT and 0.05% Tween-20.
# The raw data were processed with Octet analysis software (Sartorius) by applying a global fitting with linked Rmax values (assuming a 1:1 binding model). […] KD was estimated by nonlinear regression using the one-site binding model.
# *BRD4BD1 / YPEL5-CTLH E3 = molecular target: T4, *BRD4BD1 / YPEL5-CTLH E3 (Homo sapiens, UniProt O60885+P62699); experiment: In vitro ubiquitylation assay (YPEL5-CTLH E3, UBE2H); format: biochemical; details: YPEL5-CTLH E3-dependent
# T4 construct: fluorescent BRD4 bromodomain substrates, either in isolation (BRD4BD1 and BRD4BD2) or in tandem (BRD4BD1+BD2); GST (N, cleaved yes); made in house; host or cells: CTLH E3 and UBA1: High Five insect cells; BRD4BD1, UBE2H, ubiquitin: E. coli BL21 (DE3) RIL
# Description: All ubiquitylation assays were performed at room temperature in the final reaction buffer containing 25 mM HEPES pH 7.5, 150 mM NaCl, 0.25 mM DTT, 5 mM ATP and 10 mM MgCl2. Samples at indicated time points were quenched by mixing an aliquot of the total reaction mixture with a reducing Laemmli buffer and subjected to SDS–PAGE. Substrate ubiquitylation was visualized by a fluorescence scan of SDS–PAGE gels using the Amersham Typhoon Imager 600 (GE Healthcare).
# The mixture was incubated at room temperature for 1 h and supplemented with 0.2 μM E1 UBA1 and 20 μM ubiquitin to initiate the reaction.
# BRD4BD1 = molecular target: T5, BRD4BD1 (Homo sapiens, UniProt O60885); experiment: cell-based; format: cell-based; details: K562, 16 h
# T5 construct: host or cells: K562-Cas9
# Description: Reporter cell lines were generated as described previously.
# (§1) Then, 50 µl of cell suspension was seeded in 384-well plates and immediately treated with DMSO or drug for 16 h. The indicated drugs were dispensed with a D300 digital dispenser (Tecan Genomics). The fluorescence signal was quantified by flow cytometry (FACSymphony flow cytometer, BD Biosciences). Using FlowJo (flow cytometry analysis software, BD Biosciences), the geometric mean of the eGFP and mCherry fluorescent signal for round and mCherry-positive cells was calculated. The ratio of eGFP to mCherry was normalized to the average of ten DMSO-treated controls.
# BRD4BD2 = molecular target: T6, BRD4BD2 (Homo sapiens, UniProt O60885); experiment: BRD4 reporter stability analysis, BRD4BD2–eGFP (K562-Cas9, flow cytometry); format: cell-based; details: for DC50: BRD4BD2 reporter, K562, 16 h; for Dmax: K562
# T6 construct: host or cells: K562-Cas9
# Description: (§2) The Cilantro 2 reporter vector (PGK.BsmBICloneSite-10aaFlexibleLinker-eGFP.IRES.mCherry. cppt.EF1α.PuroR; Addgene, 74450) was used for flow-based degradation assays. […] Reporter cell lines were generated as described previously.
# as §1
# BRD4BD1+BD2 = molecular target: T7, BRD4BD1+BD2 (Homo sapiens, UniProt O60885); experiment: BRD4 reporter stability analysis, BRD4BD1+BD2–eGFP (K562-Cas9, flow cytometry); format: cell-based; details: K562, 16 h
# T7 construct: host or cells: K562-Cas9
# Description: as §2, §1
# BRD2BD1 = molecular target: T8, BRD2BD1 (Homo sapiens, UniProt P25440); experiment: Cellular fluorescent reporter assay, BRD2 BD1; format: cell-based
# T8 construct: Cellular fluorescent reporter assay testing ZZ1-induced degradation of BRD2 and BRD3 BD1 bromodomains; expressed in transfected cells
# Description: as §1
# BRD3BD1 = molecular target: T9, BRD3BD1 (Homo sapiens, UniProt Q15059); experiment: Cellular fluorescent reporter assay, BRD3 BD1; format: cell-based
# T9 construct: Cellular fluorescent reporter assay testing ZZ1-induced degradation of BRD2 and BRD3 BD1 bromodomains; expressed in transfected cells
# Description: as §1
# Plasma stability, mouse = format: in vitro ADME; details: read-out: Plasma Stability (T1/2 min)
# Plasma stability, human = format: in vitro ADME; details: read-out: Plasma Stability (T1/2 min)
# [3] = system: FAM–BRD4BD1 + YPEL5–WDR26; experiment: Real-time FP monitoring the rate of ternary complex formation; format: binding, human; details: in vitro, DTT-containing buffer
# Description: Here, the concentration of DTT in the binding buffer used for preparing the tracer–E3 ligase mixture varied from 0.1 to 5 mM.
# BRD2, BRD3, BRD4 = experiment: Western blotting of BET protein degradation; format: cell-based, human; details: immunoblotting (and proteome-wide MS)
# Description: Total cells lysates were prepared in 2× sample loading buffer (that is, 250 mM Tris-HCl pH 6.8, 4% SDS, 10% glycerol, 0.006% bromophenol blue, 2% β-mercaptoethanol, 50 mM sodium fluoride and 5 mM sodium orthovanadate). The samples with cell lysates were boiled for 5–8 min at 95 °C. The protein concentrations of the cell lysates were quantified using the BCA method and a BCA protein assay kit (Thermo Fisher Scientific). […] After washing the membranes with PBS for 30 min, the membranes were detected on a Li-COR Odyssey CLx system.
# T9 sequence (Q15059 34-140 limits assumed): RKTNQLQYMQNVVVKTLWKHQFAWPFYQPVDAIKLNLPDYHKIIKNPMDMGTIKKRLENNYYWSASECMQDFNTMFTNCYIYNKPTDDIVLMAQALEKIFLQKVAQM
# T8 sequence (P25440 74-180 limits assumed): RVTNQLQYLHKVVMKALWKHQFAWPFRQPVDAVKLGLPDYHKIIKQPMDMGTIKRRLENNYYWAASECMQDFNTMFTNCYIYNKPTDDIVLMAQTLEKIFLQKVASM
# T3 sequence (P62699 2-121): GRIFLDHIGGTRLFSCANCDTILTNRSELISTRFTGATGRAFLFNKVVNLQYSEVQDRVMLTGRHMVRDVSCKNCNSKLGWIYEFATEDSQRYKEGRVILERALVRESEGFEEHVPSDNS
compound,measurement,setting,value
"CN(C)C/C=C/C(=O)Nc1cc2c(Nc3ccc(F)c(Cl)c3)ncnc2cc1O[C@H]1CCOC1 [Afatinib, reference compound]",half-life,GSH chemical stability; glutathione (GSH) solution,25.2 min
same,remaining at 5 min,GSH chemical stability; glutathione (GSH) solution,82.1%
same,remaining at […],GSH chemical stability; glutathione (GSH) solution,48.1%
same,remaining at 0.5 h,GSH chemical stability; glutathione (GSH) solution,27.6%
same,remaining at 1 h,GSH chemical stability; glutathione (GSH) solution,13.8%
same,remaining at 2 h,GSH chemical stability; glutathione (GSH) solution,3.43%
"Cc1sc2c(c1C)C(c1ccc(Cl)cc1)=N[C@@H](CC(=O)OC(C)(C)C)c1nnc(C)n1-2 [JQ1, reference compound]",disruption of the ternary complex,[1],could disrupt the ternary complex
"CCN(CC)CCNC(=O)c1c(C)[nH]c(/C=C2\C(=O)Nc3ccc(F)cc32)c1C [Sunitinib, reference compound]",microsomal CLint,"Microsome stability, MLM",38 µL/min/mg
same,half-life,"Microsome stability, MLM",36.5 min
same,microsomal CLint,"Microsome stability, HLM",32 µL/min/mg
same,half-life,"Microsome stability, HLM",43.5 min
Cc1sc2c(c1C)C(c1ccc(NC(=O)c3ccc(S(=O)O)c(Cl)c3)cc1)=N[C@@H](CC(=O)OC(C)(C)C)c1nnc(C)n1-2 [ZZ1-SO2H],activity in cellular assays,BRD4,inactive
same,EC50,[2],60 nM and ~60 nM and 74 nM
same,affinity between degrader and YPEL5 by BLI,YPEL5,did not observe measurable affinity
same,BRD4BD1 ubiquitylation in vitro,*BRD4BD1 / YPEL5-CTLH E3,promoted robust BRD4BD1 ubiquitylation
Cc1sc2c(c1C)C(c1ccc(NC(=O)c3ccc(S(=O)(=O)O)c(Cl)c3)cc1)=N[C@@H](CC(=O)OC(C)(C)C)c1nnc(C)n1-2 [ZZ1-SO3H],activity in cellular assays,BRD4,inactive
same,BRD4BD1 ubiquitylation in vitro,*BRD4BD1 / YPEL5-CTLH E3,promoted robust BRD4BD1 ubiquitylation
Cc1sc2c(c1C)C(c1ccc(NC(=O)c3ccc(S(=O)(=O)F)c(Cl)c3)cc1)=N[C@@H](CC(=O)OC(C)(C)C)c1nnc(C)n1-2 [ZZ1],Dmax,BRD4; Jurkat,82%
same,DC50,"BRD4; Jurkat cells pretreated with MG132 for 1 h, then ZZ1 5 h",> 20000 nM
same,DC50,"BRD4; Jurkat cells pretreated with MLN-4924 for 1 h, then ZZ1 5 h",1400 ± 130 nM
same,DC50,"BRD4; Jurkat cells, 5 h",502 nM and 489 nM
same,DC50,"BRD4; Jurkat, 5 h, cells pretreated with 100 μM GSH for 2 h",152 ± 19 nM
same,DC50,"BRD4; Jurkat, 5 h, no GSH pre-treatment",237 ± 20 nM
same,DC50,"BRD4; WT YPEL5-expressing Jurkat cells, 5 h",168 ± 15 nM
same,DC50,"BRD4; YPEL5 L62A-expressing Jurkat cells, 5 h",841 ± 137 nM
same,DC50,"BRD4; YPEL5 R41A-expressing Jurkat cells, 5 h",719 ± 102 nM
same,DC50,"BRD4; YPEL5 T36A-expressing Jurkat cells, 5 h",971 ± 176 nM
same,DC50,BRD4BD1; BRD4BD1 reporter,126 nM and 128 nM
same,Dmax,BRD4BD1; BRD4BD1 reporter,88%
same,Dmax,"BRD4BD1; K562, BRD4BD1 reporter",69%
same,DC50,BRD4BD2,532 ± 80.2 nM
same,Dmax,BRD4BD2,40%
same,DC50,BRD4BD1+BD2,75 ± 16.4 nM
same,Dmax,BRD4BD1+BD2,80%
same,DC50,BRD2BD1,70.1 ± 3.6 nM
same,Dmax,BRD2BD1,63%
same,DC50,BRD3BD1,33.5 ± 5.4 nM
same,Dmax,BRD3BD1,73%
same,microsomal CLint,"Microsome stability, MLM",254 µL/min/mg
same,half-life,"Microsome stability, MLM",5.5 min
same,microsomal CLint,"Microsome stability, HLM",195 µL/min/mg
same,half-life,"Microsome stability, HLM",7.1 min
same,half-life,"Plasma stability, mouse",57 min
same,half-life,"Plasma stability, human",45 min
same,half-life,GSH chemical stability; buffer,< 5 min
same,remaining at 5 min,GSH chemical stability; buffer,26.7%
same,remaining at […],GSH chemical stability; buffer,9.36%
same,remaining at 0.5 h,GSH chemical stability; buffer,3.21%
same,remaining at 1 h,GSH chemical stability; buffer,3.12%
same,remaining at 2 h,GSH chemical stability; buffer,2.27%
same,rate of ternary complex formation,[3],induced ternary complex formation slowly
same,BET protein degradation,"BRD2, BRD3, BRD4","induced selective degradation of BET proteins (BRD3, BRD4 and, to a lesser extent, BRD2); also recorded: especially potent in the Ewing sarcoma TC-71 cell line"
"Cc1sc2c(c1C)C(c1ccc(NC(=O)c3cc(Cl)c(S(=O)O)c(Cl)c3)cc1)=N[C@@H](CC(=O)OC(C)(C)C)c1nnc(C)n1-2 [ZZ2-SO2H, 4-((4-((S)-6-(2-(tert-butoxy)-2-oxoethyl)-2,3,9-trimethyl-6H-thieno[3,2-f][1,2,4]triazolo[4,3-a][1,4]diazepin-4-yl)phenyl)carbamoyl)-2,6-dichlorobenzenesulfinic acid]",EC50,[2],< 74 nM
same,BRD4BD1 ubiquitylation in vitro,*BRD4BD1 / YPEL5-CTLH E3,promotes more robust BRD4BD1 ubiquitylation
Cc1sc2c(c1C)C(c1ccc(NC(=O)c3cc(Cl)c(S(=O)(=O)F)c(Cl)c3)cc1)=N[C@@H](CC(=O)OC(C)(C)C)c1nnc(C)n1-2 [ZZ2],DC50,"BRD4; Jurkat cells, 5 h",169 nM
same,DC50,BRD4BD1; BRD4BD1 reporter,91 ± 8.8 nM
same,Dmax,"BRD4BD1; K562, BRD4BD1 reporter",81%
same,DC50,BRD4BD2,198 ± 75.5 nM
same,Dmax,BRD4BD2,31%
same,DC50,BRD2BD1,46.4 ± 6.6 nM
same,Dmax,BRD2BD1,76%
same,DC50,BRD3BD1,21.1 ± 3.1 nM
same,Dmax,BRD3BD1,82%
same,microsomal CLint,"Microsome stability, MLM",741 µL/min/mg
same,half-life,"Microsome stability, MLM",1.9 min
same,microsomal CLint,"Microsome stability, HLM",670 µL/min/mg
same,half-life,"Microsome stability, HLM",2.1 min
same,half-life,"Plasma stability, mouse",7 min
same,half-life,"Plasma stability, human",14 min
same,half-life,GSH chemical stability; buffer,< 5 min
same,remaining at 5 min,GSH chemical stability; buffer,9.27%
same,remaining at […],GSH chemical stability; buffer,4.72%
same,remaining at 0.5 h,GSH chemical stability; buffer,0%
same,remaining at 1 h,GSH chemical stability; buffer,0%
same,remaining at 2 h,GSH chemical stability; buffer,0%
same,rate of ternary complex formation,[3],much faster rate
